# Reference: article PMC10669474, “An Exploration of Small Molecules That Bind Human Single-Stranded DNA Binding Protein 1” (Biology, 2023)
# Experiments:
# E. coli SSB = tested on: E. coli SSB; parameters: method as in PMID 27609050; settings: ssDNA interaction; cited from earlier work
# hSSB1 [1] = target: T1, hSSB1 (Homo sapiens, UniProt Q9BQ15); experiment: AlphaLISA competition dose-response binding assay; settings: for binding to hSSB1 in the AlphaLISA: triplicate; for Kd: as restated in discussion, read-out: affinity to hSSB1 in AlphaLISA binding assays
# T1 construct: 6xHis (N); made in house; host or cells: E. coli BL21 (DE3*)
# Description: To analyse the binding of compounds to hSSB1 and design a screening assay, we used Perkin Elmer’s AlphaLISA technology. The full assay design is described in the Supplementary Information. The optimal assay conditions were determined with a series of titration matrices to be 0.5 nM hSSB1, 5 nM In3-PD-biotin, 1 nM anti-hSSB1 antibody, 10 μg/mL SA donor beads, and 5 μg/mL protein G acceptor beads in a 16 μL reaction volume. These were combined in a buffer containing 10 mM Tris (pH 7.5), 100 mM NaCl, 0.1% β-mercaptoethanol, and 0.01% IGEPAL. First, an 8 μL mix of hSSB1, anti-hSSB1 antibody, and acceptor beads was prepared, which was added to the compound of interest and incubated for 1 h. Second, an 8 μL aliquot of a solution containing In3-PD-biotin and SA donor beads was added to the well. This was incubated before imaging with an EnSight Multimode Plate Reader (PerkinElmer, Shelton, CT, USA) at 10, 60, and 120 min. The assay was designed in a competition format so that the Cheng–Prusoff equation was met and the IC50 approximated the Kd.
# Dose–response curves were obtained for hit compounds and compared with TDRL-551. The same AlphaLISA competition format was used to determine the IC50/Kd of compounds binding to hSSB1. Each compound was dissolved in DMSO before being dispensed into a white 384-well microplate (PerkinElmer, Shelton, CT, USA) using a FlexDrop iQ. […]
# 1.1.1 Design of the AlphaLISA screening assay
# To test whether the compounds bind to hSSB1 and to design an effective screening assay, we used AlphaLISA technology from Perkin Elmer. This technology involves binding a biotin-labelled control DNA oligonucleotide (btn-In3-PD) to a streptavidin-coated donor (SA-donor) bead. hSSB1 is bound to an anti-hSSB1 sheep antibody as described previously, which binds to Protein G-coated acceptor beads. When hSSB1 and btn-In3-PD bind, they bring the two beads close together, and with excitation at 680 nm by laser irradiation, the phthalocyanine in the donor bead excites ambient oxygen to a reactive form of O2. When this is within 200 nm of a europium-containing acceptor bead (during a binding event), the reactive oxygen is transferred to the thioxene derivative, producing light at 615 nm. Without the acceptor bead, oxygen returns to its ground state. This lends the assay to a competition-based format for high- […]
# A titration matrix is required to optimise assay conditions to develop an AlphaLISA assay that accurately acquires results and subsequently follows the Cheng-Prusoff equation to report IC50’s as a molecule Kd. […] This is determined by finding the hook point of signal, which indicates the highest signal before the bead is saturated, after which a decrease in signal is observed. […]
# hSSB1 [2] = target: T1, hSSB1; experiment: Electrophoretic mobility shift assay (EMSA), competition with Cy5-labelled ssDNA probe; assay type: binding; settings: tested from 200 to 0.091 μM
# Description: These were performed in 10 μL reactions of 10 mM Tris (pH 7.5), 100 mM NaCl, 0.01% IGEPAL, and 1 mM DTT. Two 5 μL solutions were prepared. The first mix contained hSSB1 with the compound of interest, which were incubated together for 10 min before the addition of the probe molecule, Cy5-labelled In3-PS. The combined solution was incubated for 30 min at 37 °C, before loading dye was added and the samples were loaded into 10% polyacrylamide TBE gels. These gels were run for 1.5 h in a cold room at 80 V before being imaged using a ChemiDoc Imaging System (BioRad, Hercules, CA, USA) and quantified using ImageStudio Lite (Version 5.2) software.
# The optimal conditions for the EMSAs were established using a titration matrix of hSSB1 and Cy5-labelled In3-PD concentrations. Concentrations of hSSB1 from 1000 to 0.26 nM and Cy5-labelled In3-PD at 1 nM and 5 nM were tested. The final conditions were established as 15 nM hSSB1 and 1.5 nM Cy5-labelled In3-PS, where the In3-PS is 100% bound. The concentrations of the MS-ML compounds of Merck KGaA, Darmstadt, Germany, were tested from 100 to 0.046 μM, and the concentrations of the novel DAZLN compounds were tested from 200 to 0.091 μM.
# hSSB1 [3] = target: T1, hSSB1; experiment: AlphaLISA Mini Library screen; assay type: binding; settings: for inhibition at 10 µM: triplicate
# Description: In parallel to the rational design of small-molecule inhibitors, we acquired access to the Open Innovation Mini Library of small compounds from Merck KGaA, Darmstadt, Germany. This library consisted of 80 compounds at 10 mM in DMSO that had been investigated against other targets, from receptor blockers to protein inhibitors. The goal of screening this library was to test various scaffolds for their affinity to hSSB1.
# Using a FlexDrop iQ, 16 nL of each compound was dispensed onto a white low-volume 384-well microplate (PerkinElmer, Shelton, CT, USA) in triplicate at an assay concentration of 10 μM. In3-PS was used as the positive control binding entity at a concentration of 1 μM. The AlphaLISA assay conditions are described in Section 2.4. The hit cut-off used was an average inhibition of 30% across the three repeats. The plate was read using an EnSight Multimode Plate Reader (PerkinElmer, Shelton, CT, USA) at 10, 60, and 120 min.
# U2OS cells = experiment: CellTitre-Glo cytotoxicity assay; assay type: cell-based, human; settings: 48 h incubation, 30—0.0492 μM, CTG
# Description: The osteosarcoma cell line U2OS was purchased from the American Type Culture Collection (ATCC) and seeded at a density of 500 cells/well in a 384-well plate. They were maintained at 37 °C in a humidified atmosphere containing 5% CO2 in Roswell Park Memorial Institute […] (RPMI) medium (ThermoFisher Scientific, Inc., Brisbane, Australia) supplemented with 10% (v/v) heat-inactivated foetal bovine serum (FBS) (ThermoFisher Scientific). A cytotoxicity assay was conducted to test the impact of the three Merck KGaA, Darmstadt, Germany, compounds (MS-ML24, MS-ML25, MS-ML26) on cell viability. Increasing concentrations of each MS-ML compound were added from […] in serial dilutions of 2.5 (n = 4). The cells were incubated with the compound for 48 h before the CellTitre-Glo (CTG) (Promega) assay was performed as per the manufacturer’s instructions. The plate was read on an EnSight Multimode Plate Reader (PerkinElmer, Shelton, CT, USA).
# T1 sequence (Q9BQ15 whole entry): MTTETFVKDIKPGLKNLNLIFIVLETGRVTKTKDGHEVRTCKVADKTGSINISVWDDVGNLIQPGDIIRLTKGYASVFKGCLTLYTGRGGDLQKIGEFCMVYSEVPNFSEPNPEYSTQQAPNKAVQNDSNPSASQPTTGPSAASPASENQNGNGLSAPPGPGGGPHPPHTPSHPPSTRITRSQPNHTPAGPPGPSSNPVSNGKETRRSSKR
smiles,measurement,setting,value
O=c1cc2oc3cc(O)c(O)cc3c(-c3ccccc3O)c-2cc1O [9-hydroxyphenylfluoron],concentration at which 50% bound,E. coli SSB,~ 25 μM
COc1ccc2cc([C@H]3CC(c4cn(C)c5cc(OC)ccc45)=NN3)ccc2c1 [DAZLN-51],binding to hSSB1 in the AlphaLISA,hSSB1 [1],no binding
same,binding to hSSB1 / inhibition in the EMSA,hSSB1 [2],no inhibition was observed
COc1ccc2cc([C@H]3CC(c4cn(C)c5cc(OC)ccc45)=NN3C(=O)CCCC(=O)NCC(=O)N3CCOCC3)ccc2c1 [DAZLN-56],binding to hSSB1 in the AlphaLISA,hSSB1 [1],low level of binding
same,binding to hSSB1 / inhibition in the EMSA,hSSB1 [2],not reflected in the EMSA
CCCCCCN(Cc1ccc(C#Cc2ccc(CCCC)cc2)cc1)c1ccc(O)c(C(=O)O)c1 [MS-ML24],Kd,hSSB1 [1],143 nM
same,inhibition at 10 µM,hSSB1 [3],> 45%
CCCCCCN(Cc1ccc(C#Cc2ccc(CCCC)cc2)cc1)C(=O)c1ccc(O)c(C(=O)O)c1 [MS-ML25],inhibition at 10 µM,hSSB1 [3],> 45%
CCCCCCN(Cc1ccc(C#Cc2ccc(CCCC)cc2)cc1)c1ccc(F)c(C(=O)O)c1 [MS-ML26],Kd,hSSB1 [1],198 nM
same,result in initial screen relative to hit threshold,"hSSB1 [3]; 10 μM, hit cut-off average inhibition of 30%",slightly lower than the threshold set for the screen
CCOc1ccc2cc(C3CC(c4ccc(I)cc4)=NN3C(=O)CCCC(=O)O)c(Cl)nc2c1 (stereo not drawn) [TDRL-551],cytotoxic effect in U2OS cells,U2OS cells,no cytotoxic effect
O=c1c(O)cccc2cc(O)c(O)c(O)c12 [purpurogallin],concentration at which 50% bound,E. coli SSB,~ 25 μM
